This passage reports IC50 and IC90 results from ChEMBL document CHEMBL4483862, “Open-source discovery of chemical leads for next-generation chemoprotective antimalarials” (2018).

Structures are written as SMILES.

The assay has as its system Plasmodium berghei. The assay can be described thus: Luciferase/luciferin-expressing antifolate-resistant parasites were used to infect a culture of HepG2 cells that were pre-incubated with compounds. Infected hepatocytes emit light due to the luciferase reaction. Assay results are presented as the percent inhibition of light emission compared to control. […]. Format: functional. The conditions noted are these: sporozoite; for IC90: read-out: LUCIFERASE INFECTION ASSAY - IC90.

The mark [1] stands for this setting: read-out: LUCIFERASE INFECTION ASSAY - IC50.

Turning to `N#Cc1c(/N=C/c2ccccc2C(F)(F)F)sc2c1CCCCC2`, the IC90 (in general, the concentration needed for an effect of 90%) turned out to be 7.41 µM. Under “FFLUC_HILL_SLOPE 1.19, FFLUC_R_SQUARED 0.84, PBLUC_HILL_SLOPE 1.29, PBLUC_R_SQUARED 0.776, read-out: LUCIFERASE INFECTION ASSAY - IC50”, the IC50 (in general, the concentration that inhibits the measured activity by half) was determined as 1.35 µM.
Take `CCCCCCn1c(SCc2cc(=O)oc3cc(C)ccc23)nnc1-c1c[nH]c2ccccc12`: the IC90 was more than 10 µM. The IC50 (PBLUC_HILL_SLOPE 85.8, PBLUC_R_SQUARED 0.0287, read-out: LUCIFERASE INFECTION ASSAY - IC50) stood at 9.99 µM.
As to `COc1ccc(Cl)cc1NC(=O)CN(C)C(=O)c1cc(-c2ccccc2)nc2c1cnn2C(C)C`, the IC90 is more than 10 µM. Besides, the IC50 under setting [1] was more than 10 µM.
`CC(C)(C)c1ccc(NC(=O)CSc2ccc(S(=O)(=O)N3CCN(Cc4ccccc4)CC3)cn2)cc1`: the IC90 was determined as 9.27 µM. Moreover, the IC50 under setting [1] was determined as 4.44 µM.
For the molecule `CC(C)(C)c1ccc(NC(=O)c2nc(-c3ccccc3)n(-c3ccccc3)n2)cc1`, the IC90 is more than 10 µM. Moreover, under setting [1], the IC50 was more than 10 µM.
Regarding `COc1ccc2c(c1)CC/C(=C\c1ccc(C(C)C)cc1)C2=O`, the IC90 is more than 10.8 µM. For the same molecule, under setting [1], the IC50 is more than 10.8 µM.
`CC1CCC(N(C)C(=O)C2CCN(S(=O)(=O)c3ccc4c(c3)CCC4)CC2)CC1` (stereo not given): the IC90 was more than 10 µM. For the same molecule, the IC50 (PBLUC_HILL_SLOPE 16.6, PBLUC_R_SQUARED 0.0251, read-out: LUCIFERASE INFECTION ASSAY - IC50) turned out to be 9.82 µM.
In the case of `CC(C)n1cc(C(=O)c2ccccc2O)cc1-c1nc2ccccc2o1`, the IC90 was more than 10 µM. Also, the IC50 under setting [1] was more than 10 µM.
As to `N#CC(C(=O)CSc1nnc(-c2ccc(F)cc2)c2ccccc12)=C1Nc2ccccc2N1`, the IC90 was more than 10 µM. Besides, the IC50 (FFLUC_HILL_SLOPE 12, FFLUC_R_SQUARED 0.136, read-out: LUCIFERASE INFECTION ASSAY - IC50) is more than 10 µM.
`COc1ccccc1N1CCN(S(=O)(=O)c2cccc(Cl)c2)CC1`: the IC90 was more than 9 µM. Further, under setting [1], the IC50 is more than 9 µM.
Turning to `CC1CN(c2nc(N)c3c(N)nc4c(c3c2C#N)CC(=O)N4C2CCCC2)CC(C)O1` (stereo not given), the IC90 was more than 10 µM. Further, the IC50 under setting [1] is more than 10 µM.
In the case of `CC(C)Cn1c(N)c(C(=O)CSc2nnc(COc3ccccc3Cl)o2)c(=O)n(C)c1=O`, the IC90 was 3.85 µM. Also, the IC50 under setting [1] was 3.28 µM.
For `CC(=O)c1cccc(-c2cnc3ccc(-c4cccnc4)nn23)c1`, the IC90 was determined as 4.84 µM. The 50% inhibitory concentration (IC50) (HEPG2TOX_HILL_SLOPE 1.81, HEPG2TOX_R_SQUARED 0.991, PBLUC_HILL_SLOPE 1.06, PBLUC_R_SQUARED 0.743, read-out: LUCIFERASE INFECTION ASSAY - IC50) was found to be 0.606 µM.
`COc1ccc(C)cc1-n1c(=O)c2ccccc2n2c(SC)nnc12`: the 90% effect concentration (IC90) was more than 10 µM. The IC50 under setting [1] was more than 10 µM.
Turning to `O=c1[nH]nc(Sc2ncc([N+](=O)[O-])s2)n1-c1ccccc1C(F)(F)F`, the IC90 was more than 8.48 µM. In addition, the IC50 (FFLUC_HILL_SLOPE 106, FFLUC_R_SQUARED 0.375, read-out: LUCIFERASE INFECTION ASSAY - IC50) is more than 8.48 µM.
For `Cc1cc(C)c2nc(N(Cc3ccccc3)C(=O)c3nc(S(C)(=O)=O)ncc3Cl)sc2c1`, the IC90 was more than 10 µM. Moreover, where the note is “FFLUC_HILL_SLOPE 9.88, FFLUC_R_SQUARED 0.449, HEPG2TOX_HILL_SLOPE 6.61, HEPG2TOX_R_SQUARED 0.275, PBLUC_HILL_SLOPE 4.15, PBLUC_R_SQUARED 0.619, read-out: LUCIFERASE INFECTION ASSAY - IC50”, the IC50 was determined as 6.34 µM.
Regarding `O=C(Nc1cc(Cl)ccc1O)c1ccccc1CSc1ccc(Cl)cc1`, the IC90 was 7.79 µM. Moreover, for the setting “HEPG2TOX_HILL_SLOPE 7.65, HEPG2TOX_R_SQUARED 0.733, PBLUC_HILL_SLOPE 11.9, PBLUC_R_SQUARED 0.0529, read-out: LUCIFERASE INFECTION ASSAY - IC50”, the IC50 turned out to be 6.47 µM.
As for `S=C(NCC1CCCO1)c1c(-c2ccccc2)c2c3n(c(COc4ccccc4)nn13)CCCC2` (stereo not given), the IC90 was 9.41 µM. For the same molecule, the IC50 (FFLUC_HILL_SLOPE 2.32, FFLUC_R_SQUARED 0.306, HEPG2TOX_HILL_SLOPE 7.94, HEPG2TOX_R_SQUARED 0.0665, PBLUC_HILL_SLOPE 11.7, PBLUC_R_SQUARED 0.258, read-out: LUCIFERASE INFECTION ASSAY - IC50) amounted to 7.8 µM.
Consider `O=C(Oc1ccc(/C=N/n2cnnc2)cc1)c1ccco1`, for which the IC90 is more than 10 µM. In addition, the IC50 (PBLUC_HILL_SLOPE 1.92, PBLUC_R_SQUARED 0.124, read-out: LUCIFERASE INFECTION ASSAY - IC50) was more than 10 µM.
For the molecule `CCc1nn2c(=O)cc(CSc3nnc(-c4cc(C)cc(C)c4)o3)nc2s1`, the IC90 was more than 10 µM. Also, the IC50 under setting [1] is more than 10 µM.
On to `CC(Oc1ccc2[nH]c3ccccc3c(=O)c2c1)C(=O)NC(=O)NC12CC3CC(CC(C3)C1)C2` (stereo not given), for which the IC90 amounted to 3.1 µM. Also, the IC50 (PBLUC_HILL_SLOPE 24.7, PBLUC_R_SQUARED 0.64, read-out: LUCIFERASE INFECTION ASSAY - IC50) is 2.84 µM.
With `Cc1sc(NC(=O)c2ccco2)c(C(c2cccc(C(F)(F)F)c2)N2CC(C)CC(C)C2)c1C` (stereo not given), the IC90 was more than 10 µM. In addition, the IC50 under setting [1] came out at 6.14 µM.
In the case of `OC(c1ccc(Nc2nc3ccccc3s2)cc1)(C(F)(F)F)C(F)(F)F`, the IC90 is 9.74 µM. Besides, under “PBLUC_HILL_SLOPE 1.04, 1.87, PBLUC_R_SQUARED 0.121, 0.671, read-out: LUCIFERASE INFECTION ASSAY - IC50”, the IC50 came to 5.01 µM.
Consider `CC(C)N(C(=O)CSC1=NC(c2ccccc2)C2=C(N1)/C(=C/c1ccccc1)CCC2)c1ccccc1` (stereo not given), for which the IC90 came to 9.39 µM. For the same molecule, the IC50 (FFLUC_HILL_SLOPE 9.66, FFLUC_R_SQUARED 0.711, HEPG2TOX_HILL_SLOPE 8.12, HEPG2TOX_R_SQUARED 0.779, PBLUC_HILL_SLOPE 2.67, PBLUC_R_SQUARED 0.724, read-out: LUCIFERASE INFECTION ASSAY - IC50) was found to be 4.12 µM.
Regarding `c1ccc2c(NCCNc3ncnc4ccccc34)cccc2c1`, the IC90 turned out to be 4.93 µM. Further, the IC50 (HEPG2TOX_HILL_SLOPE 0.364, HEPG2TOX_R_SQUARED 0.666, PBLUC_HILL_SLOPE 0.695, PBLUC_R_SQUARED 0.76, read-out: LUCIFERASE INFECTION ASSAY - IC50) was 0.209 µM.
Consider `CC1(NC(=O)COC(=O)c2cc(Cl)c3c(c2)OCO3)CCS(=O)(=O)C1` (stereo not given), for which the IC90 was more than 10 µM. In addition, the IC50 under setting [1] was more than 10 µM.
Regarding `COc1ccc(Cn2c3c(c4ccccc4c2=O)C(=O)c2ccccc2-3)cc1`, the IC90 is more than 8.98 µM. Also, the IC50 (HEPG2TOX_HILL_SLOPE 4, HEPG2TOX_R_SQUARED 0.749, PBLUC_HILL_SLOPE 2.74, PBLUC_R_SQUARED 0.283, read-out: LUCIFERASE INFECTION ASSAY - IC50) worked out at 7.93 µM.
On to `Cc1nc(N2CCN(C(=O)C(C)C)CC2)c2c3c(sc2n1)CC(C)CC3` (stereo not given), for which the IC90 was more than 10 µM. In addition, where the note is “PBLUC_HILL_SLOPE 12.1, PBLUC_R_SQUARED 0.479, read-out: LUCIFERASE INFECTION ASSAY - IC50”, the IC50 is 9.05 µM.
In the case of `COc1ccc(C)cc1N(CC(=O)Nc1ccccc1C(=O)NCCc1ccccc1)S(=O)(=O)c1ccccc1`, the IC90 is more than 10 µM. Moreover, the IC50 under setting [1] is more than 10 µM.
Consider `Clc1cc(Cl)cc(-c2nnc(Sc3nc(-c4cccs4)ns3)[nH]2)c1`, for which the IC90 was more than 8 µM. The IC50 under setting [1] is more than 8 µM.
For `N#CC(Nc1ccc(C(F)(F)F)cc1)c1ccccc1` (stereo not given), the IC90 was more than 11.9 µM. In addition, the IC50 under setting [1] is more than 11.9 µM.
As for `O=C(c1oc2ccccc2c1CSc1ccc(Cl)cc1)N1CCCS/C1=N\c1ccccc1`, the IC90 was more than 10 µM. In addition, the IC50 (FFLUC_HILL_SLOPE 3.49, FFLUC_R_SQUARED 0.279, read-out: LUCIFERASE INFECTION ASSAY - IC50) was more than 10 µM.
As for `CS(=O)(=O)c1ccc(N2CCCN(c3ccc(C(F)(F)F)cn3)CC2)c([N+](=O)[O-])c1`, the IC90 was more than 10 µM. The IC50 under setting [1] was more than 10 µM.
With `OCc1cccc(-c2cnc3ccc(-c4ccccc4)nn23)c1`, the IC90 turned out to be 7.66 µM. Also, the IC50 (HEPG2TOX_HILL_SLOPE 3.47, HEPG2TOX_R_SQUARED 0.7, PBLUC_HILL_SLOPE 5.19, PBLUC_R_SQUARED 0.0412, read-out: LUCIFERASE INFECTION ASSAY - IC50) is 5.02 µM.
Consider `Cc1ccc(NC(=O)COCc2nc3ccccc3s2)cc1S(=O)(=O)Nc1ccccc1F`, for which the IC90 is more than 10 µM. The IC50 (HEPG2TOX_HILL_SLOPE 2.14, HEPG2TOX_R_SQUARED 0.975, PBLUC_HILL_SLOPE 2, PBLUC_R_SQUARED 0.573, read-out: LUCIFERASE INFECTION ASSAY - IC50) is 4.27 µM.
For `CNc1snc(C)c1C(=O)Nc1ccc(OC)c(Cc2ccccc2)c1`, the IC90 was determined as 1.1 µM. The IC50 (PBLUC_HILL_SLOPE 16.3, PBLUC_R_SQUARED 0.619, read-out: LUCIFERASE INFECTION ASSAY - IC50) is 0.961 µM.
For the molecule `N#C/C(=N\Nc1ccc(Cl)cc1)C(=O)c1ccsc1`, the IC90 is more than 11.4 µM. In addition, the IC50 under setting [1] was more than 11.4 µM.
Regarding `COc1ccccc1CNc1nc(NCc2cccc(OC)c2OC)c2sccc2n1`, the IC90 was more than 7.56 µM. The concentration for half-maximal inhibition (IC50) (PBLUC_HILL_SLOPE 0.707, PBLUC_R_SQUARED 0.411, read-out: LUCIFERASE INFECTION ASSAY - IC50) turned out to be 2.69 µM.
On to `COc1ccc(C(=O)C2CCN(c3nn4cc(C(C)(C)C)nc4s3)CC2)cc1`, for which the IC90 is 4.16 µM. Further, the IC50 under setting [1] was found to be 3.34 µM.
Take `COc1ccc(-c2cc(C(=O)NNC3=NCCC3)c3c(C)nn(-c4ccccc4)c3n2)cc1`: the IC90 was more than 10 µM. In addition, the IC50 (PBLUC_HILL_SLOPE 16.7, PBLUC_R_SQUARED 0.16, read-out: LUCIFERASE INFECTION ASSAY - IC50) worked out at 9.26 µM.
